Test results published in patent US5399557A, “Pyrroloazepine compound” (Suntory Limited, priority 1991, dated 1995).
Counter-ions that a name gives are not always drawn.

Columns and labels:
α1 receptor = assay: Anti-α1 action: norepinephrine (NE)-induced tonic contraction of isolated thoracic aorta (helical strip); parameters: species or system Hartley male guinea pig; conditions: contraction induced by 10^-5 M norepinephrine taken as 100%, guinea pig thoracic aorta, 37° C, compounds marked * tested as hydrochloride; for Anti α1 action (% of Control), 10^-7 M: test drug 10^-7 M, 0.1 µM; for Anti α1 action (% of Control), 10^-8 M: test drug 10^-8 M, 0.01 µM
Procedure: The thoracic aorta of each Hartley male guinea pig (body weight: 300-500 g) was excised. A sample cut in a helical form was suspended under 1 g load in a Magnus cylinder filled with the Tyrode solution of 37° C. which had been saturated with a mixed gas consisting of 95% O2 +5% CO2. Using an isometric transducer ("TB-612J"/NIHON KOHDEN) and a pressure preamplifier ("AP-620G"/NIHON KOHDEN), variations in tension were measured. The measurement results were recorded on a thermal pen-writing recorder ("WT-647G"/NIHON KOHDEN).
Taking the tonic contraction induced by 10^- 5M norepinephrine (NE) as 100%, the percent contractions upon addition of each test drug at 10^-8 and 10^-7 M were determined as anti-α1 action.

[1] = biological target: T1, serotonin (5-HT) receptor (Cavia porcellus, UniProt A0A286Y537); assay: Anti-serotonin action (anti-5-HT action): 5-HT-induced contraction of isolated superior mesenteric artery (helical strip); parameters: species or system Hartley male guinea pig; conditions: contraction induced by 10^-5 M serotonin taken as 100%, guinea pig superior mesenteric artery, 37° C, compounds marked * tested as hydrochloride; for remaining activity at 0.1 µM: test drug 10^-7 M, read-out: Anti 5-HT action (% of Control), 10^-7 M; for remaining activity at 1 µM: test drug 10^-6 M, read-out: Anti 5-HT action (% of Control), 10^-6 M
T1 construct: 5-HT-induced contraction
T1 sequence (A0A286Y537 1-470): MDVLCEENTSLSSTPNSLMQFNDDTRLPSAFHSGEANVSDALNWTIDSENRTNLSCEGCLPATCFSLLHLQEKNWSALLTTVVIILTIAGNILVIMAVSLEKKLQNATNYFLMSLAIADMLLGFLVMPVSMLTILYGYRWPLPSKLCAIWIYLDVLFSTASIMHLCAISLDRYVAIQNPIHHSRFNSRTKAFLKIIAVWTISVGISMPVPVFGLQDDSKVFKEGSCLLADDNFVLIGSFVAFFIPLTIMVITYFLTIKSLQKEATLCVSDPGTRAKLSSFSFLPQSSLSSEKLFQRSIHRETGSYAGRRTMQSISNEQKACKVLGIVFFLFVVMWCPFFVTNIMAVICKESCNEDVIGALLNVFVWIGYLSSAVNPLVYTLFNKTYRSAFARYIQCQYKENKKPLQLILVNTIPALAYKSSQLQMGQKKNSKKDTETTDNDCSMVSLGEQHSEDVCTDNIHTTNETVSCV
Procedure: (2) Anti-serotonin action (anti-5-HT action)
A sample cut in a helical form was suspended under 0.3 g load in a Magnus cylinder filled with the Tyrode solution of 37° C. which had been saturated with a mixed gas consisting of 95% O2 +5% CO2. Using an isometric transducer ("UL-10"/SHINKOH K.K.) and a pressure preamplifier ("DSA-605A"/SHINKOH K.K.), variations in tension were measured. The measurement results were recorded on a pen-writing recorder ("VP-6537A"/NATIONAL K.K.). Taking the contraction induced by 10^-5 M serotonin (5-HT) as 100%, the percent contractions induced by 10^-5 M 5-HT in the presence of each test drug at 10^-7 and 10^-6 M were determined as anti-5-HT action.

platelet aggregation = assay: Anti-platelet-aggregating action: platelet aggregation induced by ADP + 5-HT in platelet rich plasma; format: cell-based, Japanese white house rabbit; conditions: Oryctolagus cuniculus, test drug 10^-7 M, aggregation induced by 10^-6 M ADP + 10^-5 M 5-HT, 1 mM CaCl2 CaCl2, rabbit PRP, compound marked * (45) tested as hydrochloride, read-out: Inhibitory rate of platelet aggregation (%)
Procedure: (3) Anti-platelet-aggregating action
Blood was drawn from the auricular artery of Japanese white house rabbit (male, about 3 kg), whereby a platelet rich plasma sample (PRP) was prepared. Platelet aggregating ability was measured using a platelet aggregation measuring apparatus ("PAM-SC"/MEBANIX).
Found under the presence of 1 mM of CaCl2 was a controlling action of the test drug (10^-7 M) against the maximum reaction (100%) of the platelet aggregation induced by 10^-6 M of ADP+10^-5 M of 5-HT.

Cn1ccc2c1C(=O)N(CCCN1CCN(c3ccccc3)CC1)CCC2=NO [Compound No. 45, 4-hydroxyimino-1-methyl-7-[3-(4-phenylpiperazin-1-yl)propyl]-4,5,6,7-tetrahydropyrrolo[2,3-c]azepin-8(1H)-one]
Anti α1 action (% of Control), 10^-7 M (α1 receptor): 23.8 % of Control
Anti α1 action (% of Control), 10^-8 M (α1 receptor): 79.8 % of Control
remaining activity at 0.1 µM [1]: 11.2%
inhibition at 0.1 µM (platelet aggregation): 30%

O=C1c2c(ccn2Cc2ccccc2)C(=NO)CCN1CCCN1CCN(c2ccccc2)CC1 [Compound No. 48, 1-Benzyl-4-hydroxyimino-7-[3-(4-phenylpiperazin-1-yl)propyl]-4,5,6,7-tetrahydropyrrolo[2,3-c]azepin-8(1H)-one]
Anti α1 action (% of Control), 10^-7 M (α1 receptor): 60.5 % of Control
Anti α1 action (% of Control), 10^-8 M (α1 receptor): 98.9 % of Control
remaining activity at 1 µM [1]: 5.1%
remaining activity at 0.1 µM [1]: 52.8%

COc1cccc(N2CCN(CCCN3CCC(=NO)c4ccn(C)c4C3=O)CC2)c1 [Compound No. 50, 4-Hydroxyimino-7-[3-[4-(3-methoxyphenyl)piperazin-1-yl]propyl]-1-methyl-4,5,6,7-tetrahydropyrrolo[2,3-c]azepin-8(1H)-one]
Anti α1 action (% of Control), 10^-7 M (α1 receptor): 38.8 % of Control
Anti α1 action (% of Control), 10^-8 M (α1 receptor): 57.6 % of Control
remaining activity at 1 µM [1]: 18.4%
remaining activity at 0.1 µM [1]: 60%

Cn1ccc2c1C(=O)N(CCCN1CCN(c3ccccc3)CC1)CCC2=O [Compound No. 18, 1-Methyl-7-[3-(4-phenylpiperazin-1-yl)propyl]-6,7-dihydropyrrolo[2,3-c]azepine-4,8(1H,5H)-dione]
Anti α1 action (% of Control), 10^-7 M (α1 receptor): 85.5 % of Control
Anti α1 action (% of Control), 10^-8 M (α1 receptor): 100.0 % of Control
remaining activity at 1 µM [1]: 16.3%
remaining activity at 0.1 µM [1]: 52.8%

CCn1ccc2c1C(=O)N(CCCN1CCN(c3ccccc3)CC1)CCC2=O [Compound No. 19, 1-Ethyl-7-[3-(4-phenylpiperazin-1-yl)propyl]-6,7-dihydropyrrolo[2,3-c]azepine-4,8(1H,5H)-dione]
Anti α1 action (% of Control), 10^-7 M (α1 receptor): 90.1 % of Control
Anti α1 action (% of Control), 10^-8 M (α1 receptor): 100.0 % of Control
remaining activity at 1 µM [1]: 12.4%
remaining activity at 0.1 µM [1]: 60.3%

Cn1ccc2c1C(=O)N(CCCN1CCC(C(=O)c3ccc(F)cc3)CC1)CCC2=NO [Compound No. 43]
Anti α1 action (% of Control), 10^-7 M (α1 receptor): 37.9 % of Control
Anti α1 action (% of Control), 10^-8 M (α1 receptor): 73.3 % of Control
remaining activity at 1 µM [1]: 8.7%
remaining activity at 0.1 µM [1]: 43.1%
inhibition at 0.1 µM (platelet aggregation): 18%

Cn1ccc2c1C(=O)N(CCCN1CCN(c3ccccc3)CC1)CCC2O (centres unmarked) [Compound No. 39, 4-hydroxy-1-methyl-7-[3-(4-phenylpiperazin-1-yl)propyl]-4,5,6,7-tetrahydropyrrolo[2,3-c]azepin-8(1H)-one]
Anti α1 action (% of Control), 10^-7 M (α1 receptor): 80.5 % of Control
Anti α1 action (% of Control), 10^-8 M (α1 receptor): 99.3 % of Control
remaining activity at 1 µM [1]: 8.7%
remaining activity at 0.1 µM [1]: 34.3%
inhibition at 0.1 µM (platelet aggregation): 33%

Cn1ccc2c1C(=O)N(CCCN1CCN(c3ccc(F)cc3)CC1)CCC2O (centres unmarked) [Compound No. 40, 7-[3-[4-(4-Fluorophenyl)piperazin-1-yl]propyl]-4-hydroxy-1-methyl-4,5,6,7-tetrahydropyrrolo[2,3-c]azepin-8(1H)-one]
Anti α1 action (% of Control), 10^-7 M (α1 receptor): 94.5 % of Control
Anti α1 action (% of Control), 10^-8 M (α1 receptor): 100.0 % of Control
remaining activity at 1 µM [1]: 12.5%
remaining activity at 0.1 µM [1]: 24.2%

O=C(c1ccc(F)cc1)C1CCN(CCn2c(=O)[nH]c3ccccc3c2=O)CC1 [Ketanserin tartrate, reference compound]
inhibition at 0.1 µM (platelet aggregation): 20%

CON=C1CCN(CCCN2CCN(c3ccccc3)CC2)C(=O)c2c1ccn2C [Compound No. 46, 4-Methoxyimino-1-methyl-7-[3-(4-phenylpiperazin-1-yl)propyl]-4,5,6,7-tetrahydropyrrolo[2,3-c]azepin-8(1H)-one]
Anti α1 action (% of Control), 10^-7 M (α1 receptor): 28.0 % of Control
Anti α1 action (% of Control), 10^-8 M (α1 receptor): 78.7 % of Control
remaining activity at 1 µM [1]: 12.8%
remaining activity at 0.1 µM [1]: 59.5%

Cn1ccc2c1C(=O)N(CCCN1CCC(c3ccccc3)CC1)CCC2=NO [Compound No. 52, 4-Hydroxyimino-1-methyl-7-[3-(4-phenylpiperidin-1-yl)propyl]-4,5,6,7-tetrahydropyrrolo[2,3-c]azepin-8(1H)-one]
Anti α1 action (% of Control), 10^-7 M (α1 receptor): 62.6 % of Control
Anti α1 action (% of Control), 10^-8 M (α1 receptor): 97.2 % of Control
remaining activity at 1 µM [1]: 9.9%
remaining activity at 0.1 µM [1]: 39.1%

CCn1ccc2c1C(=O)N(CCCN1CCN(c3ccccc3)CC1)CCC2=NO [Compound No. 47, 1-Ethyl-4-hydroxyimino-7-[3-(4-phenylpiperazin-1-yl)propyl]-4,5,6,7-tetrahydropyrrolo[2,3-c]azepin-8(1H)-one]
Anti α1 action (% of Control), 10^-7 M (α1 receptor): 81.9 % of Control
Anti α1 action (% of Control), 10^-8 M (α1 receptor): 100.0 % of Control
remaining activity at 0.1 µM [1]: 5.2%
inhibition at 0.1 µM (platelet aggregation): 34%
